The record followed here is US20210371817A1, “COMPOSITIONS AND METHODS FOR PRECISE PATTERNING OF POSTERIOR NEUROECTODERM FROM HUMAN PLURIPOTENT STEM CELLS” (WISCONSIN ALUMNI RESEARCH FOUNDATION, priority 2013, published 2021).

One series deals with IMR90-4 iPSCs. Put plainly: Neuromesodermal differentiation from IMR90-4 iPSCs. In kind it is cell-based, human. The protocol: FIGS. 11A-11C show neuromesodermal differentiation from IMR90-4 iPSCs. (FIG. 11A) Timeline of neuromesodermal differentiation. (FIG. 11B) Neuromesodermal identity assessed during differentiation in 2 or 3 μM CHIR 99021. Grey histograms, IgG control. Red histograms, label of interest. Data are presented as mean±standard deviation calculated from two biological replicates. […] (FIG. 11C) Colinear HOX activation observed by qPCR during neuromesodermal differentiation. Each gene is normalized to its maximum expression. Error bars are standard deviation calculated from duplicate reactions.
Differentiation was conducted according to the protocol of FIG. 11A. Neuromesodermal identity was assessed during differentiation in both 2 and 3 μM CHIR (FIG. 11B). Grey histograms are IgG control, and red histograms are the label of interest. […] During neuromesodermal propagation, progressive HOX activation was verified by qPCR (FIG. 11C).

For series [1], the system named is neuromesodermal progenitors. Put plainly: Neuroectoderm or mesoderm fate transition of neuromesodermal progenitors by flow cytometry. In kind it is cell-based, human. The protocol: Assessment of neuroectoderm or mesoderm fate transition by flow cytometry. Grey histogram, IgG control; red histogram, antigen of interest. Data are presented as mean±standard deviation calculated from two biological replicates. (FIG. 8B) For experiments in panels FIGS. 8C-8F, neuromesodermal propagation was halted by removing FGF8b/CHIR 99021/GDF11 and adding RA. Assays were conducted after 4 days of RA treatment. (FIG. 8C) HOX profiles generated after RA treatment. Each gene is normalized to its maximum expression. Error bars are standard deviation calculated from duplicate reactions. (FIG. 8D) HoxB4 and HoxD10 expression in neuroepithelial cultures after RA treatment. Scale bars, 100 m. (FIG. 8E) Purity of Sox2, Pax6, HoxB4, and HoxD10 after 4 days of RA treatment. Sox2, Pax6, and HoxB4 were quantified using flow cytometry and HoxD10 was quantified by manual counting of dissociated cells ([…]). Error bars are standard deviation calculated from at least two biological replicates. […] (FIG. 8F) Motor neuron differentiation at cervical, thoracic, and lumbar spinal cord depths, where the motor neuron precursors show region-specific patterns of FoxP1, Isl1, and Hb9 co-expression. (FIG. 8G) Neuronal maturation from cervical, thoracic, and lumbar patterned NSCs, as assessed by immunocytochemistry (top panel; DAPI (blue) is overlaid in all images; Scale bars, 20 m) and RT-PCR (50 cycles; bottom panel).
Flow cytometry. Flow cytometry was conducted as described in the Examples above. Primary antibodies against Sox2 (mouse; 1:1000; Millipore), brachyury (goat; 1:200; R&D Systems), Pax6 (mouse; 1:200; DSHB), and HoxB4 (rat; 1:50; DSHB) were utilized. Samples were run on a FACSCaliber (BD Biosciences) and data were analyzed using Cyflogic software. Positive events were quantified by gating above the top 1% of species-matched IgG controls.
We next evaluated the transition of neuromesodermal progenitors to definitive neural progenitors. RA secreted from somites in response to declining FGF signaling elicits dorsal/ventral patterning and expression of the neuroectoderm marker Pax6 in vivo^16, 26, which led us to suspect RA serves as both the neuroectoderm fate switch and HOX ‘stop signal’. We first investigated the ability of RA to initiate neuroectoderm specification from neuromesodermal progenitors. […] At any point in neuromesodermal differentiation, the addition of RA generated highly pure (>83%) Pax6^+ neuroectoderm (FIGS. 8B-8E and FIGS. 9A-9C).

The test system of another series is H9 hESCs. The experiment in a line: HOX, OTX2 and T gene expression by RT-PCR/qPCR during hESC differentiation with morphogens. In kind it is cell-based, human. The procedure: hPSC differentiation. hPSCs were washed once with phosphate-buffered saline (PBS; Invitrogen), dissociated with ACCUTASE® (Invitrogen) for 3 min, and collected by centrifugation. hPSCs were then seeded onto VTN-NC-coated plates in E8 medium containing 10 μM ROCK inhibitor (Y27632; R&D Systems). Seeding density was 2×10^5 cells/cm^2. The following day, the cells were switched to E6 medium (same composition as E8 medium minus FGF2 and TGFβ 1). Morphogen treatments were then carried out according to the figures in the text. Cells were supplemented with FGF8b (100-200 ng/ml; Peprotech), CHIR99021 (3-6 μM; Tocris), and/or RA (3 μM; Sigma).
Reverse transcriptase polymerase chain reaction (RT-PCR). Total RNA was extracted from cells using TRIZOL® reagent (Invitrogen) according to the manufacturer's instructions. RNA was then subjected to reverse-transcription using a Thermoscript™ RT-PCR kit (Invitrogen) in a 20 μL mixture according to the manufacturer's instructions. The resulting cDNA was then amplified in a 25 μL mixture containing 10×PCR buffer, 0.2 mM dNTP, 1.5 mM MgCl2, 0.5 μM of each primer, and 1 U Taq DNA polymerase (Invitrogen). Amplified products were resolved on 2% agarose gels containing SYBR Safe (Invitrogen) and visualized with a VersaDoc (BioRad). Primer sequences can be found in Table 3. All amplifications were carried out for 35 cycles. HOXC5 and HOXC6 were amplified at 58° C., all others with an annealing temperature of 55° C.
Propagation and differentiation of neuromesodermal progenitors. H9 hESCs (passage 25-45), H9 ishcat2 hESCs (passage 33-43), and IMR90-4 iPSCs (passage 31-40) were maintained in E8 medium on MATRIGEL© (BD Biosciences) as previously described. To initiate differentiation, hPSCs were passaged with ACCUTASE© (Life Technologies) onto vitronectin (VTN-NC)-coated plates at a density of 1×10^5 cells/cm^2 as previously described. The following day, cells were changed to E6 medium. 24 h later, cells were changed to E6 medium containing 200 ng/ml FGF8b (Peprotech). 24 h later, cells were washed once with 2 ml PBS, treated with ACCUTASE® for 2 min, and removed from the surface by gentle pipetting. After collection by centrifugation, cells were gently resuspended in E6 medium containing 200 ng/ml FGF8b and CHIR99021 (CHIR, concentration varied depending on cell line; Tocris) and re-seeded on VTN-NC-coated plates at a density of 1.5×10^5 cells/cm^2. Medium was not changed until 48 h after passaging. This passaging process was repeated on day 3 of CHIR 99021 treatment (re-seed density of 1.2×10^5 cells/cm^2) if extended neuromesodermal propagation was required, and 50 ng/ml GDF11 (Peprotech) was added on day 4 of CHIR 99021 treatment to initiate lumbar patterning. Cells were changed to E6 medium containing 1 μM retinoic acid (RA; Sigma) to facilitate neural transition.
qPCR. Total RNA was extracted from cultured cells using TRIZOL® (Life Technologies) according to the manufacturer's instructions. After isolation, 2-5 μg of total RNA was immediately subjected to reverse transcription using the Thermoscript™ RT-PCR kit (Life Technologies) in a 20 μL reaction according to the manufacturer's instructions. […] For all experiments, ΔΔCt values for each gene were calculated relative to ribosomal protein S18 (RPS18) RNA levels and converted to fold difference assuming 100% primer efficiency, then normalized to maximum expression levels as indicated in each figure legend. […]
A general note: In qPCR the cycle at which signal appears reflects the starting amount.

In series [2] the test system is neuromesodermal progenitors. The experiment in a line: Accelerated neuronal differentiation of neuromesodermal progenitors. In kind it is cell-based, human. As to conditions: DAPT 1 μM; within 7 days. The protocol: For assessment of columnar identity by FoxP1 expression, cells were bulk passaged by scraping and re-seeded in VTN-NC-coated chamber slides at a 1:200 ratio in E6 medium containing 1 μM RA and 100 nM purmorphamine (PM; Cayman Chemicals). RA/PM treatment was carried out for 7 days, followed by an additional 7 day treatment with 10 ng/ml brain-derived neurotrophic factor (BDNF; Peprotech), 10 ng/ml glial-derived neurotrophic factor (GDNF; Peprotech), and cAMP (1 μM; Sigma). For accelerated neuronal differentiation, neuromesodermal progenitors were treated with 1 μM RA, 2 μM PM, and 1 μg/ml recombinant sonic hedgehog (SHH) for 2 days, then passaged with ACCUTASE® and re-seeded in VTN-NC coated chamber slides at 1×10^4 cells/cm^2 in E6 medium containing 1 μM RA, 1 μM DAPT (Cayman Chemicals), 10 ng/ml BDNF, 10 ng/ml GDNF, and 1 μM cAMP for 7 days.
Immunocytochemistry. Immunocytochemistry was conducted as previously described. Primary antibodies against Sox2 (1:500), brachyury (1:500), Pax6 (rabbit; 1:500; Covance), N-cadherin (mouse; 1:500; BD Biosciences), Otx2 (goat; 1:500; R&D Systems), HoxB4 (rat; 1:50; DSHB), HoxD10 (goat; 1:500; R&D Systems), NeuN (mouse; 1:100; Millipore), Hb9 (mouse; 1:50; DSHB), ISL1 (mouse; 1:100; DSHB), and FoxP1 (rabbit; 1:20,000; Abcam) were utilized. Samples were visualized on a Nikon Ti-E epifluorescence microscope or a Nikon AIR confocal microscope. […]

For a further series, the system named is neuromesodermal cultures. The experiment in a line: Effect of signaling pathway inhibitors on neuromesodermal identity (Sox2 and T by flow cytometry). As to conditions: for Sox2+ cells: LY-294002 10 μM, U0126 10 μM, GF109203X 3 μM, or all three at 1 μM, after 2 days. An excerpt:
(FIG. 13A) Timeline of neuromesodermal differentiation and inhibitor addition. (FIG. 13B) Neuromesodermal identity assessed by Sox2 and Brachyury (T) expression after two days. Grey histograms, IgG control. Red histograms, label of interest. LY, LY-294002; U0126, U0126; Gf, GF109203X.
In an attempt to identify which downstream signaling pathways are responsible for FGF's effects, we performed our protocol with various combinations of a PI3K inhibitor (LY-294002), an MEK inhibitor (U0126), and a PKC inhibitor (GF109203X), and measured Sox2 and T levels using flow cytometry.
A general note: Flow cytometry measures light scatter and fluorescence of single cells or particles in a stream.

A further series relates to neuromesodermal cells. Put plainly: Pax6 and HoxD10 expression after GDF11 with or without dorsomorphin, then RA. It is filed as cell-based, human. As to conditions: dorsomorphin with GDF11 and throughout RA treatment. An excerpt: (FIG. 7A) Timeline of differentiation. (FIG. 7B) qPCR assessment of lumbar/sacral gene expression at day 12. A minimum concentration of GDF11 is required to activate HoxD10 and HoxA11. Each gene is normalized to the maximum GDF11 dose. Error bars are standard deviation calculated from duplicate reactions. (FIG. 7C) Expression of Pax6 in response to increased GDF11 concentrations. Data were collected by flow cytometry and represented as mean±standard deviation calculated from two biological replicates. Sox2 was uniformly expressed regardless of GDF11 treatment (data not shown). […] Grey histograms, IgG control; Red histograms, Pax6. Data are representative of two biological replicates. […] Percentages were quantified as HoxD10 labeling relative to DAPI-stained nuclei (>2500 total cells counted per sample). Scale bars, 100 μm
After neural tube closure in vivo, opposing gradients of TGFβ and SHH signaling produce distinct dorsal and ventral domains from which sensory neurons, interneurons, and motor neurons arise. Pax6, which has been identified as a neuroectoderm fate determinant, is expressed throughout most of the neural tube but is absent from the most dorsal and ventral domains. […] The ability of GDF11 to control rostral/caudal patterning is mediated by signaling via ALK5 and activation of the SMAD2/3 complex. […]

[3] abbreviates: neuromesodermal progenitors exposed to E6 medium with the substance.

Entries after “also recorded” stand apart in the source; their conditions may differ.

For `Cc1c[nH]c(-c2cnc(NCCNc3ccc(C#N)cn3)nc2-c2ccc(Cl)cc2Cl)n1` [CHIR 99021], the Neuromesodermal identity entry in the series with IMR90-4 iPSCs (2 μM CHIR) is listed as “maintained the neuromesodermal state”. For the same molecule, the Neuromesodermal identity result in the series on IMR90-4 iPSCs (3 μM CHIR) is reported as “resulted in a mesodermal shift”. For the same molecule, the “Effect on ability of RA to induce Pax6 expression” value in series [1] (added with RA) was “repressed its ability to induce Pax6 expression”. In addition, in series [1] (setting [3]), the “Brachyury+ cells” value is listed as 96±1% and the “Sox2+ cells” value is on record as 50±8%. Moreover, the “HOX gene activation (RT-PCR)” value with H9 hESCs (morphogen added to E6 medium, up to 4 days) is “could induce Hox gene expression; also recorded: induced progressive HOX activation from HOXA1 down to HOXC5”. In the series with H9 hESCs (qPCR day 5, CHIR 99021 3 μM, RA 1 μM), the “OTX2 expression reduction compared to RA” value was greater than 100 fold.

`C[C@H](NC(=O)Cc1cc(F)cc(F)c1)C(=O)N[C@H](C(=O)OC(C)(C)C)c1ccccc1` [DAPT]: the “NeuN+ neuronal lineage cells” value in series [2] is listed as greater than 95%.

Take `CN(C)CCCn1cc(C2=C(c3c[nH]c4ccccc34)C(=O)NC2=O)c2ccccc21` [GF109203X]: in the series with neuromesodermal cultures, the “maximum dose that did not kill all cells” value was 3 µM and the “Sox2+ cells” value was 99%.

`O=c1cc(N2CCOCC2)oc2c(-c3ccccc3)cccc12` [LY-294002]: the “Sox2+ cells” value in the series on neuromesodermal cultures worked out at 99%.

Take `N#CC(=C(/N)Sc1ccccc1N)/C(C#N)=C(\N)Sc1ccccc1N` [U0126]: in the series on neuromesodermal cultures, the “Sox2+ cells” value came out at 99%.

For `c1cc(-c2cnn3cc(-c4ccc(OCCN5CCCCC5)cc4)cnc23)ccn1` [dorsomorphin], the “Pax6+ cells” value in the series with neuromesodermal cells was 83±4%.
